Patent US11274083B2, “Substituted thiophenyl uracils, salts thereof and the use thereof as herbicidal agents” (Syngenta Crop Protection AG, priority 2017, dated 2022)

Experiments:
Assay type in all cases: in vivo
[1] = system: Triticum aestivum; test: Crop compatibility post-emergence, greenhouse pot test; conditions: application rate 5 g/ha
In short: (§1)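 Pot-grown plants in sandy loam, greenhouse, sprayed post-emergence at the one-leaf stage (2–3 weeks after sowing) with WP or EC formulations as aqueous spray plus 0.5% additive at 600 L/ha. Damage scored visually after about 3 weeks versus untreated controls, in % (0% = like control, 100% = dead).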

[2] = system: Oryza sativa; test: as above; conditions: application rate 5 g/ha
In short: as §1

[3] = system: Lolium rigidum; test: Herbicidal action pre-emergence, greenhouse pot test; conditions: application rate 320 g/ha
In short: (§2)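 Application rates were 320 g/ha or lower, delivered pre-emergence as a soil-surface spray with 0.5% additive in 600 L/ha water. Plants grew in a greenhouse for about 3 weeks and were then rated visually against untreated controls, 100% being complete kill.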

[4] = system: Pharbitis purpurea; test: as above
In short: as §2

[5] = system: Setaria viridis; test: as above
In short: as §2

[6] = system: Viola tricolor; test: as above
In short: as §2

[7] = system: Echinochloa crus-galli; test: as above; conditions: application rate 320 g/ha
In short: as §2

[8] = system: Hordeum murinum; test: as above; conditions: application rate 320 g/ha
In short: as §2

[9] = system: Abutilon theophrasti; test: as above
In short: as §2

[10] = system: Veronica persica; test: as above
In short: as §2

[11] = system: Amaranthus retroflexus; test: as above
In short: as §2

[12] = system: Cyperus esculentus; test: as above; conditions: application rate 320 g/ha
In short: as §2

[13] = system: Polygonum convolvulus; test: as above
In short: as §2

[14] = system: Alopecurus myosuroides; test: as above; conditions: application rate 320 g/ha
In short: as §2

[15] = system: Stellaria media; test: as above
In short: as §2

[16] = system: Matricaria inodora; test: as above
[17] = system: Lolium rigidum; test: Herbicidal action post-emergence, greenhouse pot test; conditions: application rate 80 g/ha
In short: (§3)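 Greenhouse; sandy loam; one-leaf stage; WP or EC formulation; 80 g/ha or lower; 0.5% additive; 600 L/ha; visual % kill at about 3 weeks relative to untreated.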

[18] = system: Pharbitis purpurea; test: as above; conditions: application rate 20 g/ha
In short: as §3

[19] = system: Setaria viridis; test: as above; conditions: application rate 80 g/ha
In short: as §3

[20] = system: Viola tricolor; test: as above; conditions: application rate 80 g/ha
In short: as §3

[21] = system: Echinochloa crus-galli; test: as above; conditions: application rate 80 g/ha
In short: as §3

[22] = system: Hordeum murinum; test: as above
In short: as §3

[23] = system: Abutilon theophrasti; test: as above; conditions: application rate 80 g/ha
In short: as §3

[24] = system: Veronica persica; test: as above; conditions: application rate 20 g/ha
In short: as §3

[25] = system: Matricaria inodora; test: as above; conditions: application rate 80 g/ha
In short: as §3

[26] = system: Avena fatua; test: as above; conditions: application rate 80 g/ha
In short: as §3

[27] = system: Amaranthus retroflexus; test: as above
In short: as §3

[28] = system: Polygonum convolvulus; test: as above
In short: as §3

[29] = system: Alopecurus myosuroides; test: as above; conditions: application rate 80 g/ha, scored visually after about 3 weeks vs untreated controls
In short: as §3

[30] = system: Stellaria media; test: as above
In short: as §3

[31] = system: Avena fatua; test: Herbicidal action pre-emergence, greenhouse pot test; conditions: application rate 320 g/ha
In short: as §2

[32] = system: Zea mays; test: Crop compatibility post-emergence, greenhouse pot test; conditions: application rate 5 g/ha
In short: as §1

| Structure (SMILES) | Lolium rigidum (Efficacy in %) [3] | Pharbitis purpurea (Efficacy in %) ([4]; application rate 320 g/ha) | Setaria viridis (Efficacy in %) ([5]; application rate 320 g/ha) | Viola tricolor (Efficacy in %) ([6]; application rate 320 g/ha) | Echinochloa crus-galli (Efficacy in %) [7] | Hordeum murinum (Efficacy in %) [8] | Abutilon theophrasti (Efficacy in %) ([9]; application rate 320 g/ha) | Veronica persica (Efficacy in %) ([10]; application rate 80 g/ha) | Amaranthus retroflexus (Efficacy in %) ([11]; application rate 80 g/ha) | Alopecurus myosuroides (Efficacy in %) [14] | Lolium rigidum (Efficacy in %) [17] | Pharbitis purpurea (Efficacy in %) [18] | Setaria viridis (Efficacy in %) [19] | Viola tricolor (Efficacy in %) [20] | Echinochloa crus-galli (Efficacy in %) [21] | Abutilon theophrasti (Efficacy in %) [23] | Veronica persica (Efficacy in %) [24] | Matricaria inodora (Efficacy in %) [25] | Avena fatua (Efficacy in %) [26] | Alopecurus myosuroides (Efficacy in %) [29] | also measured |
| --- | --- | --- | --- | --- | --- | --- | --- | --- | --- | --- | --- | --- | --- | --- | --- | --- | --- | --- | --- | --- | --- |
| CCC(Sc1cc(-n2c(=O)cc(C(F)(F)F)n(C)c2=O)c(F)cc1Cl)C(=O)OCCC(=O)OC (stereo not drawn) [I.2-2] | 100% | 100% | 100% | 100% | 100% | 100% | 100% | 100% | 100% | 100% | 80% | 100% | 100% | 100% | 100% | 100% | 100% | 100% | 80% | 100% | Triticum aestivum (Efficacy in %) [1]: 20%; Oryza sativa (Efficacy in %) [2]: 20%; Cyperus esculentus (Efficacy in %) [12]: 90%; Polygonum convolvulus (Efficacy in %) ([13]; application rate 320 g/ha): 100%; Stellaria media (Efficacy in %) ([15]; application rate 320 g/ha): 100%; Matricaria inodora (Efficacy in %) ([16]; application rate 320 g/ha): 100%; Hordeum murinum (Efficacy in %) ([22]; application rate 80 g/ha): 80%; Amaranthus retroflexus (Efficacy in %) ([27]; application rate 80 g/ha): 100%; Polygonum convolvulus (Efficacy in %) ([28]; application rate 80 g/ha): 100%; Stellaria media (Efficacy in %) ([30]; application rate 80 g/ha): 100% |
| COC(=O)CCOC(=O)C(C)Sc1cc(-n2c(=O)cc(C(F)(F)F)n(C)c2=O)c(F)cc1Cl (stereo not drawn) [I.1-2] | 100% |  |  |  | 100% | 90% |  | 100% | 100% | 90% | 90% | 100% | 100% | 100% | 100% | 100% | 100% | 100% | 80% | 100% | Pharbitis purpurea (Efficacy in %) ([4]; application rate 80 g/ha): 100%; Setaria viridis (Efficacy in %) ([5]; application rate 80 g/ha): 100%; Viola tricolor (Efficacy in %) ([6]; application rate 80 g/ha): 100%; Abutilon theophrasti (Efficacy in %) ([9]; application rate 80 g/ha): 100%; Avena fatua (Efficacy in %) [31]: 90%; Polygonum convolvulus (Efficacy in %) ([13]; application rate 80 g/ha): 100%; Stellaria media (Efficacy in %) ([15]; application rate 80 g/ha): 100%; Matricaria inodora (Efficacy in %) ([16]; application rate 80 g/ha): 100%; Hordeum murinum (Efficacy in %) ([22]; application rate 20 g/ha): 100%; Amaranthus retroflexus (Efficacy in %) ([27]; application rate 80 g/ha): 100%; Polygonum convolvulus (Efficacy in %) ([28]; application rate 20 g/ha): 100%; Stellaria media (Efficacy in %) ([30]; application rate 20 g/ha): 100% |
| COC(=O)CC(CC(=O)OC)OC(=O)C(C)Sc1cc(-n2c(=O)cc(C(F)(F)F)n(C)c2=O)c(F)cc1Cl (stereo not drawn) [I.1-127] | 100% | 100% | 100% | 100% | 100% | 100% | 100% |  |  | 90% | 100% | 100% | 100% | 100% | 100% | 100% | 100% | 100% | 80% | 90% | Zea mays (Efficacy in %) [32]: 20%; Veronica persica (Efficacy in %) ([10]; application rate 320 g/ha): 100%; Avena fatua (Efficacy in %) [31]: 90%; Amaranthus retroflexus (Efficacy in %) ([11]; application rate 20 g/ha): 100%; Polygonum convolvulus (Efficacy in %) ([13]; application rate 320 g/ha): 100%; Stellaria media (Efficacy in %) ([15]; application rate 320 g/ha): 100%; Matricaria inodora (Efficacy in %) ([16]; application rate 320 g/ha): 100%; Hordeum murinum (Efficacy in %) ([22]; application rate 80 g/ha): 90%; Amaranthus retroflexus (Efficacy in %) ([27]; application rate 20 g/ha): 100%; Polygonum convolvulus (Efficacy in %) ([28]; application rate 80 g/ha): 100%; Stellaria media (Efficacy in %) ([30]; application rate 20 g/ha): 100% |
